Assay results published in US20210171576A1, “METHODS FOR TREATING CANCER WITH ACYLDEPSIPEPTIDE ANALOGS” (priority 2018, published 2021).
Where a SMILES comes first, the peptide text is derived from it. Bridges are numbered along the chain shown (N, C = ends). [ ]: non-standard residue; d: D form. The star is where a group is joined. Phe(3,5-F2) = N[C@@H](Cc1cc(F)cc(F)c1)C(=O)O; Heptenoyl(2E) = CCCC/C=C/C(=O)*; aThr = C[C@H](O)[C@H](N)C(=O)O; Pip = O=C(O)[C@@H]1CCCCN1

Biological target: T1, human mitochondrial CIpP (HsCIpP) (Homo sapiens, UniProt Q16740)
T1 construct: made in house; host or cells: E. coli SG1146 (BL21(DE3) ΔclpP::cat)
Test: Screen of ADEP analogs against HsCIpP: relative degradation (RD) index, casein-FITC degradation relative to E. coli CIpAP
Type: biochemical
Set-up: key: casein-FITC degradation by HsClpP relative to EcClpAP

T1 sequence (Q16740 57-277): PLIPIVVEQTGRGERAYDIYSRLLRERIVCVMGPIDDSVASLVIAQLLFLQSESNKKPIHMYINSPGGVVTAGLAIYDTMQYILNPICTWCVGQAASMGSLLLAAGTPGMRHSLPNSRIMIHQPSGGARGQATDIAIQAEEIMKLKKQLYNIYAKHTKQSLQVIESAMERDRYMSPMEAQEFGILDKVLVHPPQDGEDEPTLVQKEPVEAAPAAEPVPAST

Structure (SMILES): CCCC/C=C/C(=O)N[C@@H](Cc1cc(F)cc(F)c1)C(=O)N[C@@H]1C(=O)N2CCC[C@H]2C(=O)N2CCCC[C@H]2C(=O)N[C@@H](C)C(=O)N2CCC[C@H]2C(=O)O[C@H]1C [ADEP-41] ({Heptenoyl(2E)}-[Phe(3,5-F2)][aThr]P[Pip]AP; ester 2-C)
- Hs RD1 (RD value at 1 μM of the ADEP analog): 0.79
- Hs RD5 (RD value at 5 μM of the ADEP analog): 0.93
- Hs RD25 (RD value at 25 μM of the ADEP analog, measure of ability to activate HsCIpP): 0.96
